According to ChEMBL document CHEMBL1201862, “PubChem BioAssay data set” (2004):
The source made the active and inactive calls.

What was measured:
Assay type in all cases: functional
[1] = target: T1, Sentrin-specific protease 6 (Homo sapiens, UniProt Q9GZR1); assay: SENP6 protease inhibitors, SAR follow-up, biochemical, luminescence, set 2 (AID 588598)
T1 sequence (Q9GZR1 whole entry): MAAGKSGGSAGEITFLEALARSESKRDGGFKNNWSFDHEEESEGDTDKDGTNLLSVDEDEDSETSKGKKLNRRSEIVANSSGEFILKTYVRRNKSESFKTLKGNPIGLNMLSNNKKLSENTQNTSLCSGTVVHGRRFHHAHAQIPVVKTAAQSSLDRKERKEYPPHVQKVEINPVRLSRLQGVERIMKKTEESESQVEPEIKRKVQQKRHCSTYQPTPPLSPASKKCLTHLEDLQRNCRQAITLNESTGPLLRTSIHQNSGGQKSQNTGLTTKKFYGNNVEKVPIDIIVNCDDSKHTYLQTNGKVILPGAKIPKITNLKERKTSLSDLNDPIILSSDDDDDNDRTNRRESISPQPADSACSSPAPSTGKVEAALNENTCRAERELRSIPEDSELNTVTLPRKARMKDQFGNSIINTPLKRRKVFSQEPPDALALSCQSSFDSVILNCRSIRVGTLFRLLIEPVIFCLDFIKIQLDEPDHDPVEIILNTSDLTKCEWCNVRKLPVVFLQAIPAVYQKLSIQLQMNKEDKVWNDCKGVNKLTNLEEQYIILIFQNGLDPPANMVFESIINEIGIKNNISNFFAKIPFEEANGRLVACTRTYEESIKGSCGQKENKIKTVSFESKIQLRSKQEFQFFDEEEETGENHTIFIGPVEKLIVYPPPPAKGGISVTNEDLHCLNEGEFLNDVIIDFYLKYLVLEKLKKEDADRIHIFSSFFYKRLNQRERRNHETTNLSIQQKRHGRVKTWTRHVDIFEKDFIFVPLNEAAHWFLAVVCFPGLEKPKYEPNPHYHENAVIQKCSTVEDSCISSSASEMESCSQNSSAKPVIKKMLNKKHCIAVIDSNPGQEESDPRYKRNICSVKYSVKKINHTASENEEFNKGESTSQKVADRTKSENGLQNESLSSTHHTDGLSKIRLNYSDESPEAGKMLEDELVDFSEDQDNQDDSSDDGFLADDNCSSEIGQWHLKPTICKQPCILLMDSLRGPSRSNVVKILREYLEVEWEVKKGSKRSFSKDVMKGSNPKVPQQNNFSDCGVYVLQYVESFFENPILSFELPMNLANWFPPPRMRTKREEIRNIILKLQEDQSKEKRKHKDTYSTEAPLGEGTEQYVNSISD

[2] = target: T2, Caspase-3 (Homo sapiens, UniProt P42574); assay: caspase-3 inhibitors as off-family protease, SAR follow-up, selectivity assay for SENP protease inhibitor project, biochemical, luminescence, set 2 (AID 588599)
T2 sequence (P42574 whole entry): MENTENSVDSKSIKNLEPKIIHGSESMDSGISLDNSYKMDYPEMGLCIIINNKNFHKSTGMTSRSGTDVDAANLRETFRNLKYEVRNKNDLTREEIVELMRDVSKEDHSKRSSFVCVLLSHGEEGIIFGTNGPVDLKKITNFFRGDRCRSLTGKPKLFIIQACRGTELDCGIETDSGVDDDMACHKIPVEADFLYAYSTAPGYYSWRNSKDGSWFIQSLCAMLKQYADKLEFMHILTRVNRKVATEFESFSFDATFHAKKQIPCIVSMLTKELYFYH

[3] = target: T3, Sentrin-specific protease 7 (Homo sapiens, UniProt Q9BQF6); assay: SENP7 protease inhibitors, SAR follow-up, biochemical, luminescence, set 2 (AID 588600)
T3 sequence (Q9BQF6 whole entry): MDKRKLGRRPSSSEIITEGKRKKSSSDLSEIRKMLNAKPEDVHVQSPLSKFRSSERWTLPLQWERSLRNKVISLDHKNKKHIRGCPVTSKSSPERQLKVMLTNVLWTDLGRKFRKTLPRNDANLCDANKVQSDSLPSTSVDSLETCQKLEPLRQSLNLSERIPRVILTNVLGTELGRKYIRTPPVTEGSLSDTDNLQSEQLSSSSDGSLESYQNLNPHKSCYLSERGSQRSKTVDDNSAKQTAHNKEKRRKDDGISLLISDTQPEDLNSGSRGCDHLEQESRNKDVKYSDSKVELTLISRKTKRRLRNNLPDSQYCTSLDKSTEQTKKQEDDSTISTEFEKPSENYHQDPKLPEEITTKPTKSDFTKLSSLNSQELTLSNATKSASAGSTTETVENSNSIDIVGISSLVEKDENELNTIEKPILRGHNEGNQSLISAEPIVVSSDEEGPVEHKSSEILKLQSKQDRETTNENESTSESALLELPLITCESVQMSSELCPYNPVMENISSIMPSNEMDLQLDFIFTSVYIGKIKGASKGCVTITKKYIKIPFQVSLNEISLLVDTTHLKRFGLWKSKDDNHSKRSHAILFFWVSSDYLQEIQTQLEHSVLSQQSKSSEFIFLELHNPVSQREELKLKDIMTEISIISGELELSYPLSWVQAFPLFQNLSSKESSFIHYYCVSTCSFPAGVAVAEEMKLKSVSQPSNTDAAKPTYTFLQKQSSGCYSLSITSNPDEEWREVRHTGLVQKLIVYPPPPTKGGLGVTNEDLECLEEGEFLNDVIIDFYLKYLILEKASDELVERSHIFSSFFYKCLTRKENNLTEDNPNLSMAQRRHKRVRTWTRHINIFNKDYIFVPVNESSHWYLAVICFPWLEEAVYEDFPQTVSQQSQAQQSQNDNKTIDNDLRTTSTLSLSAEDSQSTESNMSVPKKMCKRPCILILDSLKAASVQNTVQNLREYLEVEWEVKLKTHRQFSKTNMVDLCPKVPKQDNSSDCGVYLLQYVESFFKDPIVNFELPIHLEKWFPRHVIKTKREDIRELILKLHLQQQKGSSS

[4] = target: T4, Sentrin-specific protease 8 (Homo sapiens, UniProt Q96LD8); assay: SENP8 protease inhibitors, SAR follow-up, biochemical, luminescence, set 2 (AID 588601)
T4 sequence (Q96LD8 whole entry): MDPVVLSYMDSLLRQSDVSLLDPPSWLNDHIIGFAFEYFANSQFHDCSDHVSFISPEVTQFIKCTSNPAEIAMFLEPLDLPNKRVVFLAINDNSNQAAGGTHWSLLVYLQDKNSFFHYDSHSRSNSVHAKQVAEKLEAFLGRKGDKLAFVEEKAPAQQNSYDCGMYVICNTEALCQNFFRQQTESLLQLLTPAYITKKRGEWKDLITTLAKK

[5] = THP-1 cell cytotoxicity, cytotoxicity control, set 6 (AID 602433); conditions: Mycobacterium tuberculosis
[6] = Vero cell cytotoxicity, cytotoxicity control for M. tuberculosis inhibitor project, purified and synthesized samples, set 8 (AID 602431); conditions: Mycobacterium tuberculosis
[7] = target: Sphingosine 1-phosphate receptor 2 (Homo sapiens, UniProt O95136); assay: Late-stage fluorescence-based dose-response cell-based counterscreen assay to identify agonists of the Sphingosine 1-Phosphate Receptor 3 (S1P3): Sphingosine 1-Phosphate Receptor 2 (S1P2) agonist assay.
[8] = target: T5, Sphingosine 1-phosphate receptor 4 (Homo sapiens, UniProt O95977); assay: Late-stage fluorescence-based dose-response cell-based counterscreen assay to identify agonists of the Sphingosine 1-Phosphate Receptor 3 (S1P3): Sphingosine 1-Phosphate Receptor 4 (S1P4) agonist assay.
T5 sequence (O95977 whole entry): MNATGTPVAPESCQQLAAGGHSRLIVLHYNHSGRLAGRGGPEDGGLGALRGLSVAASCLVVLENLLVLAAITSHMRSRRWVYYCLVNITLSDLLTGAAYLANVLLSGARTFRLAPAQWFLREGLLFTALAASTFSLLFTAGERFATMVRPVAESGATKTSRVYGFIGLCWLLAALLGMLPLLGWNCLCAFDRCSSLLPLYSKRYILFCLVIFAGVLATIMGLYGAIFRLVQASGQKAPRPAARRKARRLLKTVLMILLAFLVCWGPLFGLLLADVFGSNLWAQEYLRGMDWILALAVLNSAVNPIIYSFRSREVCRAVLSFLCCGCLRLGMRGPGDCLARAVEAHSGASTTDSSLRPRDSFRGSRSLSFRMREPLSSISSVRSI

[9] = target: 26S proteasome non-ATPase regulatory subunit 14 (Homo sapiens, UniProt O00487); assay: inhibition of proteasome subunit RPN11 – biochemical, fluorescence polarization, uHTS hits, confirmation (AID 602368)
[10] = target: Prothrombin (Bos taurus, UniProt P00735); assay: thrombin inhibition, dose response, biochemical, fluorescence polarization, uHTS hits (AID 602369)
[11] = target: 72 kDa type IV collagenase (Homo sapiens, UniProt P08253); assay: Dose Response validation of uHTS RPN11 inhibitor hits using a MMP-2 Fluorescence assay.
[12] = target: Death-associated protein kinase 3 (Homo sapiens, UniProt O43293);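 note: measured as one member of a kinome-wide profiling panel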
[13] = target: Serine/threonine-protein kinase Chk1 (Homo sapiens, UniProt O14757);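 note: measured as one member of a kinome-wide kinase profiling panel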
[14] = target: LIM domain kinase 1 (Homo sapiens, UniProt P53667); assay: Navigating the Kinome. Panel member name: LIMK1
[15] = target: G protein-coupled receptor kinase 5 (Homo sapiens, UniProt P34947); assay: Navigating the Kinome. Panel member name: GPRK5
Chain of G protein-coupled receptor kinase 5 (P34947 whole entry): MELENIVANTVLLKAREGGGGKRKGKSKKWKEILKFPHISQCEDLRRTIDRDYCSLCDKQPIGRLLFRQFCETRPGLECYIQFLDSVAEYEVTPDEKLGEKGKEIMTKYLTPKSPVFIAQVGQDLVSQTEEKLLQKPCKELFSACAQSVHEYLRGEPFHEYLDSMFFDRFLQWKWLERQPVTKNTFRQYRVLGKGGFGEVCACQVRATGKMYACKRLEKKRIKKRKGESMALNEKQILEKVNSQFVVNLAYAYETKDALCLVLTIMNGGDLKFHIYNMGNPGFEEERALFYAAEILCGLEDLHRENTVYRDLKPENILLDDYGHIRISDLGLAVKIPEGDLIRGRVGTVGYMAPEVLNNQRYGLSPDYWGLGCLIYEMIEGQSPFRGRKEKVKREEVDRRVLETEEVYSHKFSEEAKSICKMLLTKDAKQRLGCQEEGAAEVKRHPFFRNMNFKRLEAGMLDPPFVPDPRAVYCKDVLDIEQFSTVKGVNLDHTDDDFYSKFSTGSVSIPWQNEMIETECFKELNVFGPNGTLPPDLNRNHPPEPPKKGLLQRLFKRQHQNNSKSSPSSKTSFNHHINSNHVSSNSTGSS

Chain of 26S proteasome non-ATPase regulatory subunit 14 (O00487 whole entry): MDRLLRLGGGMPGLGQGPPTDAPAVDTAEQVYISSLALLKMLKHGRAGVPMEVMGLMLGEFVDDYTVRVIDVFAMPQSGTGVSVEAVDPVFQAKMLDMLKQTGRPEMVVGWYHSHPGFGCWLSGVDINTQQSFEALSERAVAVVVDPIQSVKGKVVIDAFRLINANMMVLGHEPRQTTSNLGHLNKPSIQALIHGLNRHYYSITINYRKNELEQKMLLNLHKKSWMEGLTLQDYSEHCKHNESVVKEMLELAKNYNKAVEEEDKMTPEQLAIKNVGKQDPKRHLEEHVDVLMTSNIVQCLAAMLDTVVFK
Chain of LIM domain kinase 1 (P53667 whole entry, the tested form may be a part): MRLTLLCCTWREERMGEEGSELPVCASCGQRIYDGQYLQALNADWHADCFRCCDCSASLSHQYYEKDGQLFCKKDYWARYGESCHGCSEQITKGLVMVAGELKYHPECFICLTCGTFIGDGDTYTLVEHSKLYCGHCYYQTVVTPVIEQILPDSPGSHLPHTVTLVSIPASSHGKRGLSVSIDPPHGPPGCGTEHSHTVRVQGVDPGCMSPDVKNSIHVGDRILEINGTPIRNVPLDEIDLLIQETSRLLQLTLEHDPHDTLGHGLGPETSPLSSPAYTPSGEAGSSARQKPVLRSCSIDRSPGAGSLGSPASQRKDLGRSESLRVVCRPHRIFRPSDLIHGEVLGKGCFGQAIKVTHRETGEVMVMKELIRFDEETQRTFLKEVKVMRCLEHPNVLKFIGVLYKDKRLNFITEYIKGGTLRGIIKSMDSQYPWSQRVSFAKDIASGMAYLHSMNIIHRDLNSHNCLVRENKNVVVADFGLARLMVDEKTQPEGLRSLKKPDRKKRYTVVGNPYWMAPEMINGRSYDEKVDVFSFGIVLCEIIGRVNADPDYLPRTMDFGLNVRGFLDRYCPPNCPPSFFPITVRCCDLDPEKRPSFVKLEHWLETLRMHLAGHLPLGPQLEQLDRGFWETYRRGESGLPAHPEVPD
Chain of 72 kDa type IV collagenase (P08253 whole entry): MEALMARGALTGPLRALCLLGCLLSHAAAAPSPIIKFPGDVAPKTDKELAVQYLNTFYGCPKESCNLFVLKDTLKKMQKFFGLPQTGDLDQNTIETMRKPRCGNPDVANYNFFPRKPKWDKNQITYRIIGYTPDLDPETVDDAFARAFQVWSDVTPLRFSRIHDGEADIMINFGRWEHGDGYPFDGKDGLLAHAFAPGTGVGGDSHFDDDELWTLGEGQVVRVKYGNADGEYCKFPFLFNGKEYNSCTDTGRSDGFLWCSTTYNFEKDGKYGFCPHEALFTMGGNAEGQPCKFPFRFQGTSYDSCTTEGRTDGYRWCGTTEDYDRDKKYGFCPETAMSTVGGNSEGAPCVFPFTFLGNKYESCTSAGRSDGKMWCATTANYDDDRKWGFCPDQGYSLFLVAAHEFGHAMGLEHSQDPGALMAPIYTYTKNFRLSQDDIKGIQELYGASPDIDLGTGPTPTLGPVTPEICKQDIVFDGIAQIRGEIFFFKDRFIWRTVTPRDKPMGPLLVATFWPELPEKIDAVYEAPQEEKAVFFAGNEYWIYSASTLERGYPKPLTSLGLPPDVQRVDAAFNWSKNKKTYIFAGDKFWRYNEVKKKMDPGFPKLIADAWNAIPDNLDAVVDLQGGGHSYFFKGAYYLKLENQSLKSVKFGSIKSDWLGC
Chain of Serine/threonine-protein kinase Chk1 (O14757 whole entry, the tested form may be a part): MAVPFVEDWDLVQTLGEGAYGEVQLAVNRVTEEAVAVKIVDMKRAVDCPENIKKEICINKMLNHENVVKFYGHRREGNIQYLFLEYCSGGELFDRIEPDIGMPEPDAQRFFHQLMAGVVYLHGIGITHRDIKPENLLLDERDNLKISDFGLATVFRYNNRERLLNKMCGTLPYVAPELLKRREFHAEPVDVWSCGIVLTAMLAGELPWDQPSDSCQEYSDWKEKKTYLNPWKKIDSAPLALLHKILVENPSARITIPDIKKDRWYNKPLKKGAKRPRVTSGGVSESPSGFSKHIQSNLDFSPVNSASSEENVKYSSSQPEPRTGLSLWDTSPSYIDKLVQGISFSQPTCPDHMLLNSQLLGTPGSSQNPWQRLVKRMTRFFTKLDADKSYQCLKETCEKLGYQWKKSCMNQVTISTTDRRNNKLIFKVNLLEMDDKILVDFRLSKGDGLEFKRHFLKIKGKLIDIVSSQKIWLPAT
Chain of Sphingosine 1-phosphate receptor 2 (O95136 whole entry): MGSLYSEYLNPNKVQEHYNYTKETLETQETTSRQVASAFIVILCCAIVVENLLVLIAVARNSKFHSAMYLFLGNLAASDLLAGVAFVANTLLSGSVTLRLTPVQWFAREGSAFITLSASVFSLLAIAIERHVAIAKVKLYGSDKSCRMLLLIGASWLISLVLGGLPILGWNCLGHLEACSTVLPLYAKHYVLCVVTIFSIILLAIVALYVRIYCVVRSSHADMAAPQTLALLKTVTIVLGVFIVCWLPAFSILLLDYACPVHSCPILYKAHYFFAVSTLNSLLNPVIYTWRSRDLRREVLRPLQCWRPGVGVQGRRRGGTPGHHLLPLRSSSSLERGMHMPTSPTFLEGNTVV
Chain of Death-associated protein kinase 3 (O43293 whole entry): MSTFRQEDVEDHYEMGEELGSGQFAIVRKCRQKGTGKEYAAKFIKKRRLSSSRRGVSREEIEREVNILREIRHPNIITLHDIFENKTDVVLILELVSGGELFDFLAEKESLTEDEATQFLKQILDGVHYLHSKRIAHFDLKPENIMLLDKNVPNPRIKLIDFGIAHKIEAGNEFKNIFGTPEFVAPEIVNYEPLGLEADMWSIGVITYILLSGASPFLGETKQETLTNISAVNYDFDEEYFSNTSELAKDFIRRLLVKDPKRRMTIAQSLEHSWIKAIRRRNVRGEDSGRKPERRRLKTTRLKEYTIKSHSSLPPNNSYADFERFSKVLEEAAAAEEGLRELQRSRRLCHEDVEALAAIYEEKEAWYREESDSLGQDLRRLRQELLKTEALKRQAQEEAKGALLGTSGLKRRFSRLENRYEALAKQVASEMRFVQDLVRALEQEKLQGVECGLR

Cc1[nH]c2ccccc2c1/C=N/NC(=O)Cc1nnc(N)s1
IC50 [1]: > 99 µM (inactive)
IC50 [2]: > 99 µM (inactive)
IC50 [3]: > 99 µM (inactive)
IC50 [4]: > 99 µM (inactive)

O=C(CSc1nc2c(c(=O)[nH]1)CN(Cc1ccccc1)CC2)NC1CCCCC1
CC50 [5]: > 100 µM (inconclusive)
CC50 [6]: > 100 µM (inconclusive)

O=C(c1cc(-c2ccccc2)on1)N(C1CCCCC1)C1CCCCC1
EC50 [7]: > 50 µM (inactive)
EC50 [8]: > 50 µM (inactive)

O=C(N/N=C/c1ccncc1)c1cccc(NC(=O)c2ccc(Cl)cc2)c1
IC50 [9]: 30.4 µM (active)
IC50 [10]: > 100 µM (inactive)
IC50 [11]: > 100 µM (inactive)

Cc1nn(C)c(C)c2cc([N+](=O)[O-])cc1-2
Ki [12]: 3.98 µM (active)
Ki [13]: 1.58 µM (active)
Ki [14]: 2 µM (active)
Ki [15]: 3.98 µM (active)
